Patent US20230150981A1, “N-HETEROARYLALKYL-2-(HETEROCYCLYL AND HETEROCYCLYLMETHYL) ACETAMIDE DERIVATIVES AS SSTR4 AGONISTS” (Takeda Pharmaceutical Compnay Limited, priority 2020, published 2023)

Columns and labels:
[1] = molecular target: T1, SSTR4 (Homo sapiens, UniProt P31391); experiment: Inhibition of forskolin stimulated cAMP in CHO-K1 cells overexpressing SSTR4; format: cell-based; conditions: read-out: SSTR4 Activity pEC50 (converted)
T1 construct: host or cells: CHO-K1
Method in brief: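 CHO-K1 cells overexpressing SSTR4 treated 30 min at room temperature with compound in Krebs Ringer buffer containing 0.5% BSA, 300 μM IBMX and 350 nM forskolin. Intracellular cAMP measured by HTRF LANCE Ultra (665/615 nm); pEC50 values reported.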

[2] = molecular target: T1, SSTR4; experiment: SSTR4 I-125 somatostatin competition binding assay (CHO-K1 membranes); conditions: competition with I-125 somatostatin, membranes from CHO-K1 overexpressing SSTR4; read-out: SSTR4 Binding pIC50 (converted)
Experimental: SSTR4 I-125 Somatostatin Competition Binding Assay
Membranes from CHO-K1 cells overexpressing SSTR4 are purchased from Perkin Elmer (catalog number ES-524-M400UA). Test compounds are suspended in DMSO and then diluted in assay buffer (25 mM HEPES pH 7.4, 10 mM MgCl2, 1 mM CaCl2), 0.5% BSA) plus 0.2 nM I-125 labeled somatostatin (Perkin Elmer catalog number NEX389). Fifty μL of compound/I-125 somatostatin in assay buffer are added per well to 96-well poly-propylene plate. Then 1 μg of SSTR4 membranes in 50 μL assay buffer are added per well. The Plate is incubated for 60 minutes at room temperature. FilterMat A filters (Perkin Elmer catalog number 1450-421) are pre-soaked in 0.5% PEI (Sigma catalog number P3143). The contents of the assay plate are transferred to filters with a TomTech harvester and washed 5 times with 20 mM HEPES, 100 mM NaCl. The filters are dried in a microwave oven then transferred to sample bag containing a scintillator sheet (Perkin Elmer catalog number 1450-441). The scintillator sheets are melted to filters using a heat block. The filters are then read in a MicroBeta scintillation counter. Binding Ki curves are generated using Activity Base for Screening Data Management and the results are reported as pIC50.

[3] = molecular target: T2, SSTR1 (Homo sapiens, UniProt P30872); experiment: SSTR1 I-125 somatostatin competition binding assay for selectivity versus SSTR1 (CHO-K1 membranes); conditions: competition with I-125 somatostatin, membranes from CHO-K1 overexpressing SSTR1; read-out: SSTR1 Binding pIC50 (converted)
T2 construct: purchased Perkin Elmer ES-520-M400UA; host or cells: CHO-K1 membranes
Experimental: SSTR1 I-125 Somatostatin Competition Binding Assay for Selectivity Versus SSTR1
Membranes from CHO-K1 cells overexpressing SSTR1 are purchased from Perkin Elmer (catalog number ES-520-M400UA). Test compounds are suspended in DMSO and then diluted in assay buffer (25 mM HEPES pH 7.4, 10 mM MgCl2, 1 mM CaCl2), 0.5% BSA) plus 0.4 nM I-125 labeled somatostatin (Perkin Elmer catalog number NEX389). Fifty μL of compound/I-125 somatostatin in assay buffer are added per well to 96-well poly-propylene plate. Then 10 μg of SSTR1 membranes in 50 μL assay buffer are added per well. The plate is incubated for 60 minutes at room temperature. FilterMat A filters (Perkin Elmer catalog number 1450-421) are pre-soaked in 0.5% PEI (Sigma catalog number P3143). The contents of the assay plate are transferred to filters with a TomTech harvester and washed 5 times with 20 mM HEPES, 100 mM NaCl. The filters are dried in a microwave oven then transferred to sample bag containing a scintillator sheet (Perkin Elmer catalog number 1450-441). The scintillator sheets are melted to the filters using a heat block. The filters are then read in a MicroBeta scintillation counter. Binding Ki curves are generated using Activity Base for Screening Data Management and the results are reported as pIC50.

T1 sequence (P31391 whole entry): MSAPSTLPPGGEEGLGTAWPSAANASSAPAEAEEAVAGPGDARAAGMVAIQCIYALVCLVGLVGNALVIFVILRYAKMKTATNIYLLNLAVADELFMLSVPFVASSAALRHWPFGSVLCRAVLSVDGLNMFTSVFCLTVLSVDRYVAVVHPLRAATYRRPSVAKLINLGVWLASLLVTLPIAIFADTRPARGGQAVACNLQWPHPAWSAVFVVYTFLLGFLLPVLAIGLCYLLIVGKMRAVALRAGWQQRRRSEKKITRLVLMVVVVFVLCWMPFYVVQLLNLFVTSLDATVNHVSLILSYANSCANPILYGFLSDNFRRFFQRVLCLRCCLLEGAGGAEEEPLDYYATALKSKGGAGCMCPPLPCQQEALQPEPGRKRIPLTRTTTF
T2 sequence (P30872 whole entry): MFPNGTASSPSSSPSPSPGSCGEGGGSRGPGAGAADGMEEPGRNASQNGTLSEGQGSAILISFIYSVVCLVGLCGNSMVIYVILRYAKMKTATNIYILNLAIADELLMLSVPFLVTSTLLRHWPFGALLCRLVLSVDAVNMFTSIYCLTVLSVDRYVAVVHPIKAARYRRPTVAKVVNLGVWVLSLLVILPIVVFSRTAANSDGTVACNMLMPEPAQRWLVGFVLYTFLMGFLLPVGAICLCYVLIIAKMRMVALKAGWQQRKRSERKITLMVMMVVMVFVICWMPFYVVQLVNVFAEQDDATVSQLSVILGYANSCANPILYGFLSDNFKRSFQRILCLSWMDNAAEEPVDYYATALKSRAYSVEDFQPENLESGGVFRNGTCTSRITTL

| SMILES | EC50 [1] [nM] | IC50 [2] [nM] | IC50 [3] [nM] |
| --- | --- | --- | --- |
| C[C@@H](CN1CCC1)C(=O)NC(C)(C)c1ccc(Cl)cc1 (single isomer, unassigned) [Example 155] | 2.51 | 39.8 | 3160 |
| C[C@H](CN1CCC1)C(=O)NC(C)(C)c1ccccc1F (single isomer, unassigned) [Example 156] | 7.94 | 100 | 20000 |
| O=C(CCN1CCC1)N[C@H](c1cc(F)ccc1F)C(F)F (single isomer, unassigned) [Example 169] | 2.51 | 316 | 39800 |
| COc1c(F)cccc1C(C)(C)NC(=O)[C@H](C)CN1CCC1 (single isomer, unassigned) [Example 171] | 2 | 15.8 | 3980 |
| Cc1ccc([C@H](CF)NC(=O)CCN2CCC2)cc1 (single isomer, unassigned) [Example 175] | 20 | 158 | 31600 |
| C[C@H](CN1CCC1)C(=O)N[C@H](c1ccccc1)C(F)F (single isomer, unassigned) [Example 181] | 0.158 | 6.31 | 1580 |
| CC[C@H](CN1CCC1)C(=O)NC(C)(C)c1ccc(F)cc1 (single isomer, unassigned) [Example 182] | 1.58 | 12.6 | 1000 |
| CC[C@@H](CN1CCC1)C(=O)NC(C)(C)c1ccc(F)cc1 (single isomer, unassigned) [Example 183] | 50.1 | 501 | 20000 |
| CC[C@H](CN1CCC1)C(=O)NC(C)(C)c1cccc(F)c1 (single isomer, unassigned) [Example 184] | 0.631 | 15.8 | 2000 |
| CC[C@@H](CN1CCC1)C(=O)NC(C)(C)c1ccc(C)cc1 (single isomer, unassigned) [Example 187] | 0.794 | 20 | 1580 |
| O=C(CCN1CCC1)NC(c1ccc(F)cc1)C(F)(F)F (single isomer, unassigned) [Example 190] | 2 | 20 | 3160 |
| O=C(CCN1CCC1)NC(c1cccc(Cl)c1)C(F)(F)F (single isomer, unassigned) [Example 191] | 2 | 10 | 2510 |
| O=C(CCN1CCC1)NC(c1cccc(Cl)c1)C(F)(F)F (single isomer, unassigned) [Example 192] | 15.8 | 126 | 31600 |
| O=C(CCN1CCC1)NC(c1cccc(F)c1)C(F)(F)F (single isomer, unassigned) [Example 193] | 15.8 | 200 | 31600 |
| O=C(CCN1CCCC1)N[C@H](c1cccc(Cl)c1)C(F)F (single isomer, unassigned) [Example 198] | 6.31 | 20 | 7940 |
| CC[C@@H](CN1CCC1)C(=O)NC(C)(C)c1ccccc1F (single isomer, unassigned) [Example 200] | 2 | 25.1 | 5010 |
| O=C(CCN1CCC1)N[C@H](c1ccccc1)C(F)F (single isomer, unassigned) [Example 201] | 31.6 | 63.1 | 25100 |
| C[C@H](CN1CCC1)C(=O)N[C@@H](CF)c1ccccc1 (single isomer, unassigned) [Example 205] | 1.26 | 25.1 | 2510 |

| SMILES | EC50 [1] [nM] | IC50 [2] [nM] | IC50 [3] [nM] |
| --- | --- | --- | --- |
| Cc1ccc(C(NC(=O)CCN2CCC2)C(F)(F)F)cc1 (single isomer, unassigned) [Example 207] | 1.58 | 39.8 | 5010 |
| O=C(CCN1CCC1)NC(c1cccc(F)c1)C(F)(F)F (single isomer, unassigned) [Example 208] | 3.16 | 39.8 | 15800 |
| O=C(CCN1CCC1)NC(c1ccccc1F)C(F)(F)F (single isomer, unassigned) [Example 209] | 1.26 | 126 | 20000 |
| Cc1ccccc1C(NC(=O)CCN1CCC1)C(F)(F)F (single isomer, unassigned) [Example 210] | 10 | 31.6 | 3980 |
| Cc1cccc2c(C(C)(C)NC(=O)CC3CCCN3C)nn(C)c12 (stereo not drawn) [Example 1, N-(2-(1,7-dimethyl-1H-indazol-3-yl)propan-2-yl)-2-(1-methylpyrrolidin-2-yl)acetamide] | 6.31 | 63.1 | 10000 |
| CN1CCCCC1CC(=O)NC(C)(C)c1nn(C)c2ccccc12 (stereo not drawn) [Example 2, N-(2-(1-methyl-1H-indazol-3-yl)propan-2-yl)-2-(1-methylpiperidin-2-yl)acetamide] | 6.31 | 63.1 | 3160 |
| CN1CCC[C@@H]1CC(=O)NC(C)(C)c1nn(C)c2ccccc12 [Example 3, (R)-N-(2-(1-methyl-1H-indazol-3-yl)propan-2-yl)-2-(1-methylpyrrolidin-2-yl)acetamide] | 25.1 | 200 | 5010 |
| CN1CCC[C@H]1CC(=O)NC(C)(C)c1nn(C)c2ccccc12 [Example 4, (S)-N-(2-(1-methyl-1H-indazol-3-yl)propan-2-yl)-2-(1-methylpyrrolidin-2-yl)acetamide] | 25.1 | 158 | 10000 |
| CC(C)(NC(=O)CCN1CCCC1)c1nccc2ccccc12 [Example 5, N-(2-(isoquinolin-1-yl)propan-2-yl)-3-(pyrrolidin-1-yl)propanamide] | 3.98 | 50.1 | 5010 |
| CN1CCCCC1CC(=O)NC(C)(C)c1nccc2ccccc12 (stereo not drawn) [Example 6, N-(2-(isoquinolin-1-yl)propan-2-yl)-2-(1-methylpiperidin-2-yl)acetamide] | 1.58 | 25.1 | 2510 |
| Cc1cccc2c(C(C)(C)NC(=O)CC3CCCCN3C)nccc12 (stereo not drawn) [Example 7, N-(2-(5-methylisoquinolin-1-yl)propan-2-yl)-2-(1-methylpiperidin-2-yl)acetamide] | 3.98 | 79.4 | 5010 |
| CN1CCCCC1CC(=O)NC(C)(C)c1cccc(Cl)c1 (stereo not drawn) [Example 11, N-(2-(3-chlorophenyl)propan-2-yl)-2-(1-methylpiperidin-2-yl)acetamide] | 39.8 | 200 | 25100 |
| CN1CCC[C@@H]1CC(=O)NC(C)(C)c1nccc2ccccc12 [Example 16, (R)-N-(2-(isoquinolin-1-yl)propan-2-yl)-2-(1-methylpyrrolidin-2-yl)acetamide] | 12.6 | 100 | 3160 |
| Cc1cccc2c(C(C)(C)NC(=O)C[C@H]3CCCN3C)nccc12 [Example 17, (R)-N-(2-(5-methylisoquinolin-1-yl)propan-2-yl)-2-(1-methylpyrrolidin-2-yl)acetamide] | 3.98 | 100 | 5010 |
| Cc1cccc2c(C(C)(C)NC(=O)C[C@@H]3CCCN3C)nccc12 [Example 18, (S)-N-(2-(5-methylisoquinolin-1-yl)propan-2-yl)-2-(1-methylpyrrolidin-2-yl)acetamide] | 7.94 | 100 | 7940 |
| Cc1cccc2c(C(C)(C)NC(=O)C[C@H]3CCCN3C)noc12 [Example 19, (R)-N-(2-(7-methylbenzo[d]isoxazol-3-yl)propan-2-yl)-2-(1-methylpyrrolidin-2-yl)acetamide] | 12.6 | 126 | 10000 |
| Cc1cccc2c(C(C)(C)NC(=O)C[C@@H]3CCCN3C)noc12 [Example 21, (S)-N-(2-(7-methylbenzo[d]isoxazol-3-yl)propan-2-yl)-2-(1-methylpyrrolidin-2-yl)acetamide] | 12.6 | 79.4 | 25100 |
